Data as given in ChEMBL document CHEMBL6096732 (J Med Chem, 2025).
Calls of active or inactive are those of the source. No cut-off for these calls is given here.

Tests used:
Histone deacetylase 2 = Histone deacetylase 2 (Homo sapiens, UniProt Q92769); test: Inhibition of recombinant HDAC2 (unknown origin) using Boc-Lys(acetyl)-AMC as substrate preincubated for 1 hr followed by substrate addition and measured after 2 hrs by fluorescence based micro plate reader analysis
B16-F10 [1] = test: Induction of DNA damage in mouse B16-F10 cells assessed as increase in gamma-H2AX expression at 2 uM incubated for 24 hrs in presence of olaparib by Western blot analysis; assay type: functional, cell-based
[2] = molecular target: T1, Histone deacetylase 3 (Mus musculus) (UniProt O88895); test: In vivo inhibition of HDAC3 in male C57BL/6 mouse model implanted with mouse B16-F10 cells assessed as increase in acetylated histone H3 level in tumor at 50 mg/kg, po co-administered with NP-19 as once daily dosage via gavage for 14 days by DAPI staining based immunofluorescence analysis; assay type: functional, organism-based; settings: time 14.0 day
T1 sequence (whole entry): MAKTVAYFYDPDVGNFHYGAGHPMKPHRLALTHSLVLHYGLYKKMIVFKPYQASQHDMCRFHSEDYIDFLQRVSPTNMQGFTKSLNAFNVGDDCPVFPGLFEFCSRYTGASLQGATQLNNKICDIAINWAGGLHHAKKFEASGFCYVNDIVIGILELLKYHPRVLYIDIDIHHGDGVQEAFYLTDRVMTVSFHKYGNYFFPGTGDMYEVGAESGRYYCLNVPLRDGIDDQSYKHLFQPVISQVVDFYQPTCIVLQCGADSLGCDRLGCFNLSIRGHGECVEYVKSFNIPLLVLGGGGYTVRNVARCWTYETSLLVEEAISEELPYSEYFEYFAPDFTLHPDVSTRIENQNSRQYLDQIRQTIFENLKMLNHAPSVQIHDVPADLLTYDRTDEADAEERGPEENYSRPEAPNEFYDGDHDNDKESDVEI

B16-F10 [3] = test: Synergistic antitumor activity against mouse B16-F10 cells implanted in male C57BL/6 mouse model assessed as tumor growth inhibition at 50 mg/kg, po co-administered with NP-19 as once daily dosage via gavage for 14 days relative to control; assay type: functional; settings: B16-F10, 336 h, time 14 day, read-out: TGI
Histone deacetylase 1 = Histone deacetylase 1 (Homo sapiens, UniProt Q13547); settings: dose 500.0 nM, time 3.0 hrs
Chain of Histone deacetylase 1 (Q13547 whole entry): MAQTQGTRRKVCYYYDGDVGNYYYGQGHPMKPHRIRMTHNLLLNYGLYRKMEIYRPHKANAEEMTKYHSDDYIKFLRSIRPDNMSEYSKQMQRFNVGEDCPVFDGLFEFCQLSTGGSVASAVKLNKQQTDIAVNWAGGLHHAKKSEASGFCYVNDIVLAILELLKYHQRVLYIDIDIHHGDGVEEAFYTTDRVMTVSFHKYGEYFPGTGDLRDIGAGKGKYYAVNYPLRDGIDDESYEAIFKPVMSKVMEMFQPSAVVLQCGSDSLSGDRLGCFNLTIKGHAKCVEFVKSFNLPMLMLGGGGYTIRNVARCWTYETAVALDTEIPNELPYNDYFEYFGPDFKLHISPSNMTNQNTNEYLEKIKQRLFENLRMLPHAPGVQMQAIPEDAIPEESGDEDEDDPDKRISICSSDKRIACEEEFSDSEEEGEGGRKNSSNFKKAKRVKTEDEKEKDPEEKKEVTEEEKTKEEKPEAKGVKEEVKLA

4T1 [4] = test: Antitumor activity against mouse 4T1 cells implanted in female BALB/c mouse model assessed as decrease in PAPR1 expression in tumor co-administrated orally with olaparib as once daily dose via gavage for 14 days by immunohistochemistry analysis; assay type: functional, cell-based; settings: route po, time 14.0 day
Mus musculus [5] = test: Immunomodulatory activity in male C57BL/6 mouse model implanted with mouse B16-F10 cells assessed as increase in CD3+ CD4+ T cells in tumor at 50 mg/kg, po co-administered with NP-19 as once daily dosage via gavage for 14 days by flow cytometric analysis (reference value: 3.1 %); assay type: functional; settings: time 14 day
[6] = Toxicity in male C57BL/6 mouse implanted with mouse B16-F10 cells assessed as histopathological changes in heart at 50 mg/kg, po administered once daily for 14 days by HandE staining based microscopic analysis; assay type: organism-based; settings: in vivo, 336 h, time 14 day
[7] = AUC (0 to infinity) in male Sprague-Dawley rat at 20 mg/kg, po measured after 12 hrs by LC-MS/MS analysis; assay type: ADME, organism-based; settings: in vivo
Histone deacetylase 9 = Histone deacetylase 9 (Homo sapiens, UniProt Q9UKV0); test: Inhibition of recombinant HDAC9 (unknown origin) using Boc-Lys(trifluoroacetyl)-AMC as substrate preincubated for 1 hr followed by substrate addition and measured after 2 hrs by fluorescence based micro plate reader analysis
Chain of Histone deacetylase 9 (Q9UKV0 whole entry): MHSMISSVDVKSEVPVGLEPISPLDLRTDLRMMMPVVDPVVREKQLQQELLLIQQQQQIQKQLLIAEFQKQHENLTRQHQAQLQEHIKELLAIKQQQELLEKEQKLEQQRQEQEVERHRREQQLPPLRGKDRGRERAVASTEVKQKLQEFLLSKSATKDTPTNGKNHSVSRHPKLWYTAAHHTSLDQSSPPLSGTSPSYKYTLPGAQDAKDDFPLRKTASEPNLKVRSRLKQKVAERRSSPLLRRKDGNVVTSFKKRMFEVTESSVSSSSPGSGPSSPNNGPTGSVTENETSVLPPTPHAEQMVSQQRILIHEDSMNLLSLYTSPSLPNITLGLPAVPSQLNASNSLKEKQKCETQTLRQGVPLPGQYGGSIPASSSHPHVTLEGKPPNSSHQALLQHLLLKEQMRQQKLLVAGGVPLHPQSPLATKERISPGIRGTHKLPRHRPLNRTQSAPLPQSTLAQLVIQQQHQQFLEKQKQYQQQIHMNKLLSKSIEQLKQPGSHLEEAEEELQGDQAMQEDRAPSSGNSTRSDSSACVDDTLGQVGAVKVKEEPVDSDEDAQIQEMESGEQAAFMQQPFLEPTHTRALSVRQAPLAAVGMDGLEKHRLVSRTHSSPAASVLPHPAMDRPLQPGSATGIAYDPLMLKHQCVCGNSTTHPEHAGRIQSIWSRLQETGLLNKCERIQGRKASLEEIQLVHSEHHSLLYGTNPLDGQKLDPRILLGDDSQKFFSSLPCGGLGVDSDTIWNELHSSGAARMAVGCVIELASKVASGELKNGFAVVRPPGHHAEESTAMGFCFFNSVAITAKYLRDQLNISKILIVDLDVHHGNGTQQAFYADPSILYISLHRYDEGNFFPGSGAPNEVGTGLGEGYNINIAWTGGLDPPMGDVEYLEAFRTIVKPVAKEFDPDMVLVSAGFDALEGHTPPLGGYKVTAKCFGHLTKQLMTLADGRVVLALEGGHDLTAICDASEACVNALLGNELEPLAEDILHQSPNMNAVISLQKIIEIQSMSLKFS

4T1 [8] = test: Antitumor activity against mouse 4T1 cells implanted in female BALB/c mouse model assessed as decrease in PAPR1 expression in tumor administrated orally as once daily dose via gavage for 14 days by DAPI staining based immunofluorescence analysis; assay type: functional, cell-based; settings: route po, time 14.0 day
[9] = AUMC (0 to t) in male Sprague-Dawley rat at 2 mg/kg, iv measured after 12 hrs by LC-MS/MS analysis; assay type: ADME, organism-based; settings: in vivo
[10] = molecular target: T1, Histone deacetylase 3 (Mus musculus); test: In vivo inhibition of HDAC3 in male C57BL/6 mouse model implanted with mouse B16-F10 cells assessed as increase in acetylated histone H3 level in tumor at 50 mg/kg, po administered once daily via gavage for 14 days by DAPI staining based immunofluorescence analysis; assay type: functional, organism-based; settings: time 14.0 day
Histone deacetylase 3 [11] = molecular target: T2, Histone deacetylase 3 (Homo sapiens, UniProt O15379); test: Inhibition of recombinant HDAC3 (unknown origin) using Boc-Lys(acetyl)-AMC as substrate preincubated for 1 hr followed by substrate addition and measured after 2 hrs by fluorescence based micro plate reader analysis
T2 sequence (O15379 whole entry): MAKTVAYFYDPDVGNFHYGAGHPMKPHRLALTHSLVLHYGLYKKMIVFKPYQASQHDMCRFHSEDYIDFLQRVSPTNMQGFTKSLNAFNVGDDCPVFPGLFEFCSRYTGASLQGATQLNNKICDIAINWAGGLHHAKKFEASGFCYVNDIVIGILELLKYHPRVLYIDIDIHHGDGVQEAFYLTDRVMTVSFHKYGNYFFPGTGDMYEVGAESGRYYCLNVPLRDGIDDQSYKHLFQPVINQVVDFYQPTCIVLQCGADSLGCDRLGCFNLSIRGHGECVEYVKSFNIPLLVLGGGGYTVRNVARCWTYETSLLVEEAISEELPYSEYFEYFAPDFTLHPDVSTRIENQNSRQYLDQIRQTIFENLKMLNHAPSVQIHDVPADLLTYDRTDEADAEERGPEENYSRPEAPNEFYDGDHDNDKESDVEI

Histone deacetylase 11 = Histone deacetylase 11 (Homo sapiens, UniProt Q96DB2); test: Inhibition of recombinant HDAC11 (unknown origin) preincubated for 1 hr followed by substrate addition and measured after 2 hrs by fluorescence based micro plate reader analysis
Chain of Histone deacetylase 11 (Q96DB2 whole entry): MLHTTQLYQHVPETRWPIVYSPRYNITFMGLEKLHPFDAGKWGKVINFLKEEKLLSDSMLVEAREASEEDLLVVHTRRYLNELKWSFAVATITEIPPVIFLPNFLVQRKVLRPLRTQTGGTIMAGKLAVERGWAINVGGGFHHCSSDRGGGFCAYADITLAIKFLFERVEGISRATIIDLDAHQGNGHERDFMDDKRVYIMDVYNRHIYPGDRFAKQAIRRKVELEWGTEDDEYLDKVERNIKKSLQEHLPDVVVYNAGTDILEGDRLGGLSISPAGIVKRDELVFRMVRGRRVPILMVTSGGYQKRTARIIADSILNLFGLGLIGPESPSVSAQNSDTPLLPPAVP

[12] = Clearance in male Sprague-Dawley rat at 20 mg/kg, po measured after 12 hrs by LC-MS/MS analysis; assay type: ADME, organism-based; settings: in vivo
Mus musculus [13] = test: Effect on acetylated alpha-tubulin level in male C57BL/6 mouse tumor implanted with mouse B16-F10 cells at 50 mg/kg, po administered once daily via gavage for 14 days by Western blot analysis; assay type: functional, organism-based; settings: time 14.0 day
[14] = Toxicity in male C57BL/6 mouse implanted with mouse B16-F10 cells assessed as body weight loss at 50 mg/kg, po administered once daily for 14 days; assay type: organism-based; settings: in vivo, 336 h, time 14 day
[15] = AUC (0 to 12 hrs) in male Sprague-Dawley rat at 20 mg/kg, po measured after 12 hrs by LC-MS/MS analysis; assay type: ADME, organism-based; settings: in vivo
[16] = molecular target: Programmed cell death 1 ligand 1 (Mus musculus, UniProt Q9EP73); test: (§1) Induction of PD-L1 degradation in mouse B16-F10 cells assessed as decrease in PD-L1 protein level incubated for 24 hrs by Western blot analysis; assay type: cell-based
Chain of Programmed cell death 1 ligand 1 (Q9EP73 whole entry): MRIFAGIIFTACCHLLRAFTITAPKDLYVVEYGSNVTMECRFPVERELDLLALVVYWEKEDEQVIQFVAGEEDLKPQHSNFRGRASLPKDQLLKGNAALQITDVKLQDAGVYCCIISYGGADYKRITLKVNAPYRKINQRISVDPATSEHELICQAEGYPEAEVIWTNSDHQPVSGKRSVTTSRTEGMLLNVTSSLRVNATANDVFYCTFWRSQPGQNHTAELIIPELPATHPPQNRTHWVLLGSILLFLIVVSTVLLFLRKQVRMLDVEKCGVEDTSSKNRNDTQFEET

[17] = molecular target: Programmed cell death 1 ligand 1 (Mus musculus) (UniProt Q9EP73); test: as §1; assay type: cell-based
Chain of Programmed cell death 1 ligand 1 (Mus musculus) (Q9EP73 whole entry): as above

4T1 [18] = test: Induction of DNA damage in mouse 4T1 cells assessed as increase in gamma-H2AX expression at 2 uM incubated for 24 hrs by Western blot analysis; assay type: functional, cell-based
4T1 [19] = test: Antitumor activity against mouse 4T1 cells implanted in female BALB/c mouse model assessed as tumor growth inhibition co-administrated orally with olaparib as once daily dose via gavage for 14 days relative to control; assay type: functional; settings: route po; time 14 day
B16-F10 [20] = test: Induction of apoptosis in mouse B16-F10 cells assessed as increase in apoptotic cells at 20 uM incubated for 48 hrs by Annexin V-FITC/PI staining based flow cytometric analysis relative to control; assay type: functional
B16-F10 [21] = test: Induction of DNA damage in mouse B16-F10 cells assessed as increase in gamma-H2AX expression at 2 uM incubated for 24 hrs by Western blot analysis; assay type: functional, cell-based
[22] = Tmax in male Sprague-Dawley rat at 20 mg/kg, po measured after 12 hrs by LC-MS/MS analysis; assay type: ADME, organism-based; settings: in vivo
Histone deacetylase 3 [23] = molecular target: T2, Histone deacetylase 3; settings: dose 500.0 nM, time 3.0 hrs
[24] = Clast in male Sprague-Dawley rat at 2 mg/kg, iv measured after 12 hrs by LC-MS/MS analysis; assay type: ADME, organism-based; settings: in vivo, read-out: Clast

Chain of Histone deacetylase 2 (Q92769 whole entry): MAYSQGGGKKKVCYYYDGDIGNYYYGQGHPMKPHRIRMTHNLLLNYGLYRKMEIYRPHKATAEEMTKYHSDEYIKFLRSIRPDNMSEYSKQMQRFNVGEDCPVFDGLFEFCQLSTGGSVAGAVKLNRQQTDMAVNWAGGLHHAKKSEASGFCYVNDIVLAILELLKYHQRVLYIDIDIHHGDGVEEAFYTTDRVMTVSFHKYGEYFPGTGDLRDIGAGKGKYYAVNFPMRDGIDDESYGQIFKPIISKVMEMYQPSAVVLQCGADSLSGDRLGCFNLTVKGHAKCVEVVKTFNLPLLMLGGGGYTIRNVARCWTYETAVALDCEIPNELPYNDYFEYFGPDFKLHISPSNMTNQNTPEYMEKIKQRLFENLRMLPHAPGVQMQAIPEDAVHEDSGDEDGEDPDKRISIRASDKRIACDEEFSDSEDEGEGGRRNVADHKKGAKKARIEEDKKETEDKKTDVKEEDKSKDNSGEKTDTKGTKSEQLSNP

## CCCNNC(=O)c1ccc(Cn2c3ccccc3c3c(-c4ccccn4)nc4ccccc4c32)cc1
Histone deacetylase 2
  IC50: 9.77 µM
B16-F10 [1]
  Activity: Active
[2]
  inhibition: Active
B16-F10 [3]
  inhibition in vivo at 50 mg/kg: 80%
Histone deacetylase 1
  inhibition: 14%
4T1 [4]
  Activity: Active
Mus musculus [5]
  Activity: 32%
[6]
  Activity: Non-toxic
[7]
  AUC(0-inf): 8170 ng·h/mL
Histone deacetylase 9
  IC50: > 10 µM
4T1 [8]
  Activity: Active; Comparable To The Effect Of Olaparib
[9]
  AUMCt: 626.686 hr.hr.ug/L
[10]
  inhibition: Active
Histone deacetylase 3 [11]
  IC50: 0.042 µM
Histone deacetylase 11
  IC50: 8.87 µM
[12]
  CL/F: 41.1 mL/min/kg
Mus musculus [13]
  Activity: inactive
[14]
  Activity: Non-toxic
[15]
  AUC(0-t) at 12 h: 7830 ng·h/mL
[16]
  DC50: 4.03 µM
[17]
  Activity: Dose-dependent-effect
4T1 [18]
  Activity: Active
4T1 [19]
  TGI: 91%
B16-F10 [20]
  Activity: 60.7%
B16-F10 [21]
  Activity: Active
[22]
  Tmax: 30 min
Histone deacetylase 3 [23]
  inhibition: 96%
[24]
  concentration at 12 h: 0.475 ng/mL
